The values that follow come from ChEMBL document CHEMBL1154276, “Discovery of highly potent novel antifungal azoles by structure-based rational design” (2009).

Converted amounts (≈) assume the structure as drawn. Bounds are passed on as bounds.

Format in all cases: functional
In one assay the test system is Candida albicans. In words: Antifungal activity against Candida albicans by serial dilution method after 24 hrs.
For another assay, the system named is Candida tropicalis. The experiment in a line: Antifungal activity against Candida tropicalis by serial dilution method after 24 hrs.
Assay [1] concerns Cryptococcus neoformans. In words: Antifungal activity against Cryptococcus neoformans by serial dilution method after 72 hrs.
In the next assay the test system is Trichophyton rubrum. In words: Antifungal activity against Trichophyton rubrum by serial dilution method after 7 days. The conditions noted are these: 168 h.
A further assay deals with Aspergillus fumigatus. The experiment in a line: Antifungal activity against Aspergillus fumigatus by serial dilution method after 7 days. The conditions noted are these: 168 h.
Another assay deals with Nannizzia gypsea. The experiment in a line: Antifungal activity against Microsporum gypseum by serial dilution method […].
Assay [2] has as its system Cryptococcus neoformans. In words: Selectivity ratio of compound MIC80 to voriconazole MIC80 for Cryptococcus neoformans.

The MIC80 is an inhibitory concentration at the 80% level, which refers to growth in some studies and to a panel of isolates in others. Low readings indicate greater potency, high ones weaker potency. Consider `CN(CCCCOc1ccccc1Br)CC(O)(Cn1cncn1)c1ccc(F)cc1F` (centres undefined), for which the MIC80 in the assay with Candida albicans was 0.0156 mg/L (≈ 0.0315 µM); against Candida tropicalis, 0.0156 mg/L (≈ 0.0315 µM); with Cryptococcus neoformans [1], 0.004 mg/L (≈ 0.00807 µM); with Trichophyton rubrum, 0.0625 mg/L (≈ 0.126 µM); against Aspergillus fumigatus it was over 64 mg/L; against Nannizzia gypsea it was 0.0625 mg/L (≈ 0.126 µM). Moreover, in the assay on Cryptococcus neoformans [2], the Selectivity ratio was 4.

With `Cc1ccc(OCCCCN(C)CC(O)(Cn2cncn2)c2ccc(F)cc2F)cc1` (centres undefined), the MIC80 against Candida albicans amounted to 0.0156 mg/L (≈ 0.0362 µM); against Candida tropicalis it was 0.004 mg/L (≈ 0.00929 µM); in the assay with Cryptococcus neoformans [1], 0.0625 mg/L (≈ 0.145 µM); in the assay on Trichophyton rubrum, 0.0156 mg/L (≈ 0.0362 µM); in the assay with Aspergillus fumigatus, 16 mg/L (≈ 37.2 µM); in the assay on Nannizzia gypsea, 0.0625 mg/L (≈ 0.145 µM).

For the compound `Cc1ccccc1OCCCCN(C)CC(O)(Cn1cncn1)c1ccc(F)cc1F` (centres undefined), the MIC80 against Candida albicans was 0.0625 mg/L (≈ 0.145 µM); against Candida tropicalis it was 0.0156 mg/L (≈ 0.0362 µM); against Cryptococcus neoformans [1], 0.0156 mg/L (≈ 0.0362 µM); with Trichophyton rubrum, 0.0625 mg/L (≈ 0.145 µM); in the assay on Aspergillus fumigatus it was over 64 mg/L; against Nannizzia gypsea, 0.0625 mg/L (≈ 0.145 µM).

For `CN(CCCCOc1ccc(F)cc1)CC(O)(Cn1cncn1)c1ccc(F)cc1F` (centres undefined), the MIC80 came to 0.0156 mg/L (≈ 0.0359 µM) against Candida albicans; 0.004 mg/L (≈ 0.00921 µM) in the assay with Candida tropicalis; 0.0625 mg/L (≈ 0.144 µM) against Cryptococcus neoformans [1]; 0.0156 mg/L (≈ 0.0359 µM) against Trichophyton rubrum; 16 mg/L (≈ 36.8 µM) against Aspergillus fumigatus; 0.0625 mg/L (≈ 0.144 µM) against Nannizzia gypsea.

Take `CN(CCCCOc1ccc(Cl)cc1)CC(O)(Cn1cncn1)c1ccc(F)cc1F` (centres undefined): the MIC80 against Candida albicans came out at 0.001 mg/L (≈ 0.00222 µM); in the assay on Candida tropicalis, 0.001 mg/L (≈ 0.00222 µM); with Cryptococcus neoformans [1] it was 0.0156 mg/L (≈ 0.0346 µM); in the assay on Trichophyton rubrum it was 0.0625 mg/L (≈ 0.139 µM); against Aspergillus fumigatus, 4 mg/L (≈ 8.87 µM); against Nannizzia gypsea, 0.0156 mg/L (≈ 0.0346 µM).

As for `CN(CCCCOc1ccccc1Cl)CC(O)(Cn1cncn1)c1ccc(F)cc1F` (centres undefined), the MIC80 in the assay with Candida albicans is 0.0156 mg/L (≈ 0.0346 µM); in the assay on Candida tropicalis, 0.0156 mg/L (≈ 0.0346 µM); in the assay with Cryptococcus neoformans [1] it was 0.0156 mg/L (≈ 0.0346 µM); with Trichophyton rubrum, 0.0625 mg/L (≈ 0.139 µM); with Aspergillus fumigatus, over 64 mg/L; with Nannizzia gypsea, 0.0625 mg/L (≈ 0.139 µM).

Take `CN(CCCCOc1ccc(C(C)(C)C)cc1)CC(O)(Cn1cncn1)c1ccc(F)cc1F` (centres undefined): the MIC80 in the assay on Candida albicans was 0.0625 mg/L (≈ 0.132 µM); against Candida tropicalis, 0.0625 mg/L (≈ 0.132 µM); with Cryptococcus neoformans [1], 0.25 mg/L (≈ 0.529 µM); against Trichophyton rubrum, 0.0625 mg/L (≈ 0.132 µM); with Aspergillus fumigatus, over 64 mg/L; in the assay on Nannizzia gypsea, 0.0625 mg/L (≈ 0.132 µM).

On to `Cc1cccc(OCCCCN(C)CC(O)(Cn2cncn2)c2ccc(F)cc2F)c1` (centres undefined), for which the MIC80 with Candida albicans was 0.0156 mg/L (≈ 0.0362 µM); in the assay with Candida tropicalis, 0.0156 mg/L (≈ 0.0362 µM); in the assay with Cryptococcus neoformans [1], 0.0625 mg/L (≈ 0.145 µM); against Trichophyton rubrum it was 0.0625 mg/L (≈ 0.145 µM); against Aspergillus fumigatus, 64 mg/L (≈ 149 µM); in the assay on Nannizzia gypsea, 0.0625 mg/L (≈ 0.145 µM).

Consider `CN(CCCCOc1cccc(N)c1)CC(O)(Cn1cncn1)c1ccc(F)cc1F` (centres undefined), for which the MIC80 in the assay with Candida albicans is 0.0156 mg/L (≈ 0.0362 µM); with Candida tropicalis, 0.0156 mg/L (≈ 0.0362 µM); with Cryptococcus neoformans [1], 0.25 mg/L (≈ 0.579 µM); against Trichophyton rubrum, 0.25 mg/L (≈ 0.579 µM); against Aspergillus fumigatus, over 64 mg/L; against Nannizzia gypsea, 0.0625 mg/L (≈ 0.145 µM).

`CN(CCCCOc1ccc(OCc2ccccc2)cc1)CC(O)(Cn1cncn1)c1ccc(F)cc1F` (centres undefined): the MIC80 against Candida albicans was found to be 0.0156 mg/L (≈ 0.0299 µM); in the assay on Candida tropicalis, 0.0156 mg/L (≈ 0.0299 µM); in the assay with Cryptococcus neoformans [1], 0.0156 mg/L (≈ 0.0299 µM); with Trichophyton rubrum it was 0.0625 mg/L (≈ 0.12 µM); in the assay on Aspergillus fumigatus, 32 mg/L (≈ 61.2 µM); against Nannizzia gypsea, 0.0156 mg/L (≈ 0.0299 µM).

For the compound `COc1ccc(OCCCCN(C)CC(O)(Cn2cncn2)c2ccc(F)cc2F)cc1` (centres undefined), the MIC80 came to 0.0156 mg/L (≈ 0.0349 µM) in the assay with Candida albicans; 0.004 mg/L (≈ 0.00896 µM) in the assay with Candida tropicalis; 0.0625 mg/L (≈ 0.14 µM) against Cryptococcus neoformans [1]; 0.0156 mg/L (≈ 0.0349 µM) against Trichophyton rubrum; 16 mg/L (≈ 35.8 µM) against Aspergillus fumigatus; 0.0625 mg/L (≈ 0.14 µM) against Nannizzia gypsea.

Take `CN(CCCCOc1ccc(Br)cc1)CC(O)(Cn1cncn1)c1ccc(F)cc1F` (centres undefined): the MIC80 is 0.001 mg/L (≈ 0.00202 µM) in the assay on Candida albicans; 0.001 mg/L (≈ 0.00202 µM) in the assay with Candida tropicalis; 0.004 mg/L (≈ 0.00807 µM) against Cryptococcus neoformans [1]; 0.0156 mg/L (≈ 0.0315 µM) against Trichophyton rubrum; 4 mg/L (≈ 8.07 µM) against Aspergillus fumigatus; 0.0156 mg/L (≈ 0.0315 µM) against Nannizzia gypsea. Also, in the assay with Cryptococcus neoformans [2], the Selectivity ratio is 4.

Turning to `CN(CCCCOc1cccc(Br)c1)CC(O)(Cn1cncn1)c1ccc(F)cc1F` (centres undefined), the MIC80 in the assay on Candida albicans came to 0.0625 mg/L (≈ 0.126 µM); in the assay with Candida tropicalis, 0.001 mg/L (≈ 0.00202 µM); against Cryptococcus neoformans [1], 0.0625 mg/L (≈ 0.126 µM); against Trichophyton rubrum, 0.0625 mg/L (≈ 0.126 µM); against Aspergillus fumigatus, 64 mg/L (≈ 129 µM); in the assay on Nannizzia gypsea, 0.0156 mg/L (≈ 0.0315 µM).

For the compound `CN(CCCCOc1cccc([N+](=O)[O-])c1)CC(O)(Cn1cncn1)c1ccc(F)cc1F` (centres undefined), the MIC80 was determined as 0.0156 mg/L (≈ 0.0338 µM) in the assay with Candida albicans; 0.004 mg/L (≈ 0.00867 µM) in the assay on Candida tropicalis; 0.0625 mg/L (≈ 0.135 µM) against Cryptococcus neoformans [1]; 0.0625 mg/L (≈ 0.135 µM) in the assay with Trichophyton rubrum; 64 mg/L (≈ 139 µM) against Aspergillus fumigatus; 0.0625 mg/L (≈ 0.135 µM) with Nannizzia gypsea.

Regarding `CN(CCCCOc1ccccc1[N+](=O)[O-])CC(O)(Cn1cncn1)c1ccc(F)cc1F` (centres undefined), the MIC80 is 0.0625 mg/L (≈ 0.135 µM) in the assay with Candida albicans; 0.0625 mg/L (≈ 0.135 µM) in the assay with Candida tropicalis; 0.25 mg/L (≈ 0.542 µM) with Cryptococcus neoformans [1]; 0.0625 mg/L (≈ 0.135 µM) against Trichophyton rubrum; over 64 mg/L against Aspergillus fumigatus; 0.0625 mg/L (≈ 0.135 µM) against Nannizzia gypsea.

Consider `CN(CCCCOc1ccc(N)cc1)CC(O)(Cn1cncn1)c1ccc(F)cc1F` (centres undefined), for which the MIC80 against Candida albicans was 0.0625 mg/L (≈ 0.145 µM); with Candida tropicalis it was 0.0156 mg/L (≈ 0.0362 µM); in the assay with Cryptococcus neoformans [1], 0.25 mg/L (≈ 0.579 µM); against Trichophyton rubrum, 1 mg/L (≈ 2.32 µM); against Aspergillus fumigatus, over 64 mg/L; against Nannizzia gypsea it was 0.25 mg/L (≈ 0.579 µM).

Regarding `CN(CCCCOc1ccc(OC(F)(F)F)cc1)CC(O)(Cn1cncn1)c1ccc(F)cc1F` (centres undefined), the MIC80 in the assay on Candida albicans was 0.0156 mg/L (≈ 0.0312 µM); against Candida tropicalis, 0.004 mg/L (≈ 0.00799 µM); against Cryptococcus neoformans [1] it was 0.0625 mg/L (≈ 0.125 µM); in the assay on Trichophyton rubrum it was 0.0156 mg/L (≈ 0.0312 µM); in the assay on Aspergillus fumigatus it was over 64 mg/L; against Nannizzia gypsea, 0.0625 mg/L (≈ 0.125 µM).

Take `CN(CCCCOc1ccc([N+](=O)[O-])cc1)CC(O)(Cn1cncn1)c1ccc(F)cc1F` (centres undefined): the MIC80 against Candida albicans came to 0.001 mg/L (≈ 0.00217 µM); against Candida tropicalis, 0.004 mg/L (≈ 0.00867 µM); against Cryptococcus neoformans [1], 0.0156 mg/L (≈ 0.0338 µM); in the assay on Trichophyton rubrum, 0.0625 mg/L (≈ 0.135 µM); in the assay with Aspergillus fumigatus it was 64 mg/L (≈ 139 µM); against Nannizzia gypsea it was 0.0156 mg/L (≈ 0.0338 µM).

For `CN(CCCCOc1ccccc1N)CC(O)(Cn1cncn1)c1ccc(F)cc1F` (centres undefined), the MIC80 is 0.0625 mg/L (≈ 0.145 µM) against Candida albicans; 0.0156 mg/L (≈ 0.0362 µM) with Candida tropicalis; 1 mg/L (≈ 2.32 µM) against Cryptococcus neoformans [1]; 1 mg/L (≈ 2.32 µM) in the assay on Trichophyton rubrum; over 64 mg/L in the assay on Aspergillus fumigatus; 0.25 mg/L (≈ 0.579 µM) with Nannizzia gypsea.

Consider `OC(Cn1cncn1)(Cn1cncn1)c1ccc(F)cc1F` [FLUCONAZOLE], for which the MIC80 in the assay with Candida albicans is 0.25 mg/L (≈ 0.816 µM); with Candida tropicalis, 1 mg/L (≈ 3.27 µM); against Cryptococcus neoformans [1], 1 mg/L (≈ 3.27 µM); in the assay on Trichophyton rubrum, 0.25 mg/L (≈ 0.816 µM); against Aspergillus fumigatus, over 64 mg/L; in the assay on Nannizzia gypsea it was 1 mg/L (≈ 3.27 µM).

As to `CCC(C)n1ncn(-c2ccc(N3CCN(c4ccc(OCC5COC(Cn6cncn6)(c6ccc(Cl)cc6Cl)O5)cc4)CC3)cc2)c1=O` (centres undefined) [ITRACONAZOLE], the MIC80 against Candida albicans came out at 0.125 mg/L (≈ 0.177 µM); in the assay on Candida tropicalis, 0.0156 mg/L (≈ 0.0221 µM); against Cryptococcus neoformans [1] it was 0.5 mg/L (≈ 0.709 µM); in the assay on Trichophyton rubrum, 0.125 mg/L (≈ 0.177 µM); in the assay with Aspergillus fumigatus, 2 mg/L (≈ 2.83 µM); with Nannizzia gypsea, 0.125 mg/L (≈ 0.177 µM).

As to `C[C@@H](c1ncncc1F)[C@](O)(Cn1cncn1)c1ccc(F)cc1F` [VORICONAZOLE], the MIC80 in the assay with Candida albicans came out at 0.0156 mg/L (≈ 0.0447 µM); in the assay on Candida tropicalis, 0.001 mg/L (≈ 0.00286 µM); with Cryptococcus neoformans [1], 0.0156 mg/L (≈ 0.0447 µM); in the assay on Trichophyton rubrum it was 0.0156 mg/L (≈ 0.0447 µM); in the assay on Aspergillus fumigatus, 0.25 mg/L (≈ 0.716 µM); in the assay on Nannizzia gypsea it was 0.0156 mg/L (≈ 0.0447 µM).
